This assay deals with Bruton's Tyrosine Kinase (BTK), inactivated state (Homo sapiens (Human), UniProt Q06187). Nature of the assay: Bruton's Tyrosine Kinase (BTK) Inhibition TR-FRET (Time Resolved FRET) competition assay. The note with it: TR-FRET competition with Kinase Tracer 178, BTK-Eu complex, 18-24 h at 14° C. It counts as binding. Here is the method: Bruton's Tyrosine Kinase (BTK) Inhibition TR-FRET (Time Resolved FRET) Assay
This BTK competition assay measures compound potency (IC50) for the inactivated state of Bruton's Tyrosine Kinase using FRET (Förster/Fluorescence Resonance Energy Transfer) technology. The BTK-Eu complex was incubated on ice one hour prior to use at a starting concentration of 50 nM BTK-Bioease™: 10 nM Eu-streptavidin (Perkin-Elmer Catalog#AD0062). The assay buffer consisted of 20 mM HEPES (pH 7.15), 0.1 mM DTT, 10 mM MgCl2, 0.5 mg/ml BSA with 3% Kinase Stabilizer (Fremont Biosolutions, Catalog #STB-K02). After 1 h, the reaction mixture from above was diluted 10 fold in assay buffer to make 5 nM BTK: 1 nM Eu-Streptavidin complex (donor fluorophore). 18 μl of a mixture of 0.11 nM BTK-Eu and 0.11 nM Kinase Tracer 178 (Invitrogen, Catalog #PV5593,) with BTK-Eu alone as no negative control, was then dispensed into 384-well flat bottom plates (Greiner, 784076). Compounds to be tested in assay were prepared as 10× concentrations and serial dilution in half-log increments was performed in DMSO so as to generate 10 point curves. To initiate the FRET reaction, compounds prepared as 10× stock in DMSO was added to the plates and the plates were incubated 18-24 h at 14° C.
After the incubation the plates were read on a BMG Pherastar Fluorescent plate reader (or equivalent) and used to measure the emission energy from the europium donor fluorophore (620 nm emission) and the FRET (665 nm emission). The negative control well values were averaged to obtain the mean minimum. The positive “no inhibitor” control wells were averaged to obtain the mean maximum. Percent of maximal FRET was calculated using following equation: % max FRET=100×[(FSR cmpd−FSR mean min)/(FSR mean max−FSR mean min)]
where FSR=FRET Signal ratio. % Max FRET curves were plotted in Activity Base (Excel) and the IC50(%), hill slope, z′ and % CV were determined. The mean IC50 and standard deviation will be derived from duplicate curves (singlet inhibition curves from two independent dilutions) using Microsoft Excel.
Representative compound data for this assay are listed below in Table II.

Structures can show the parent of a compound that is named as a salt.

Sequence of Bruton's Tyrosine Kinase (BTK), inactivated state (Q06187 whole entry): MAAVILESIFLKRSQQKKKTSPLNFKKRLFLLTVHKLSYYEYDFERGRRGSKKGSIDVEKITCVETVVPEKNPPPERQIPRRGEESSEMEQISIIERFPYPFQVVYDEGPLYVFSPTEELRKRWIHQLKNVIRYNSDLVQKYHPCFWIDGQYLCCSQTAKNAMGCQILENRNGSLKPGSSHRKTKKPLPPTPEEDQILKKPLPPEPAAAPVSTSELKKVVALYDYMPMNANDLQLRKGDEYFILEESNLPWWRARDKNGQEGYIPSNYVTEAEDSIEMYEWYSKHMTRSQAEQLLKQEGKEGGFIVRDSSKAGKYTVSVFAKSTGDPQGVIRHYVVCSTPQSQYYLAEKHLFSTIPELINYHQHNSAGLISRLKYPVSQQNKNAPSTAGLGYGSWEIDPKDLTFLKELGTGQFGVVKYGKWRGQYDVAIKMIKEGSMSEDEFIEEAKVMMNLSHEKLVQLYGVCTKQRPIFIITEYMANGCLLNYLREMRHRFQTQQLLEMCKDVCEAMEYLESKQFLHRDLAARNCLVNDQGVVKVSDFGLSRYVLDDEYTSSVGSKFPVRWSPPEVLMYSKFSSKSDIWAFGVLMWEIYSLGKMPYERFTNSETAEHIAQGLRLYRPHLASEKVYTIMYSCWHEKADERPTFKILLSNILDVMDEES

As for `Cc1cc(Oc2cccc(F)c2F)cc(C)c1-n1ncc(C(=O)c2cc3cc(C(=O)N4CCOCC4)ccc3[nH]2)c1N` [Example I-24, {5-Amino-1-[4-(2,3-difluoro-phenoxy)-2,6-dimethyl-phenyl]-1H-pyrazol-4-yl}-[5-(morpholine-4-carbonyl)-1H-indol-2-yl]-methanone], the IC50 (in general, the point on the concentration scale where inhibition reaches its midpoint) was determined as 35 nM.

Consider `COc1nc(Oc2cccc(F)c2F)ccc1-n1ncc(C(=O)c2cc3cc(C(=O)N4CCOCC4)ccc3[nH]2)c1N` [Example I-25, {5-Amino-1-[6-(2,3-difluoro-phenoxy)-2-methoxy-pyridin-3-yl]-1H-pyrazol-4-yl}-[5-(morpholine-4-carbonyl)-1H-indol-2-yl]-methanone], for which the IC50 was found to be 74 nM.

The compound `Cc1cc(Oc2cccc(F)c2F)ccc1-n1ncc(C(=O)c2cc3cc(C(=O)O)ccc3[nH]2)c1N` [Example I-26, 2-{5-Amino-1-[4-(2,3-difluoro-phenoxy)-2-methyl-phenyl]-1H-pyrazole-4-carbonyl}-1H-indole-5-carboxylic acid] gave an IC50 of 14 nM.

`Cc1cc(OCc2ccc(Cl)cc2)ccc1-n1ncc(C(=O)c2cc3cc(C(=O)N4CCOCC4)ccc3[nH]2)c1N` [Example I-27, {5-Amino-1-[4-(4-chloro-benzyloxy)-2-methyl-phenyl]-1H-pyrazol-4-yl}-[5-(morpholine-4-carbonyl)-1H-indol-2-yl]-methanone] displayed an IC50 of 3.7 nM. This IC50 lies about 3.8-fold lower than the previous one.

As for `COc1cc(Oc2cccc(F)c2F)ccc1-n1ncc(C(=O)c2cc3cc(C(=O)N4CCOCC4)ccc3[nH]2)c1N` [Example I-28, {5-Amino-1-[4-(2,3-difluoro-phenoxy)-2-methoxy-phenyl]-1H-pyrazol-4-yl}-[5-(morpholine-4-carbonyl)-1H-indol-2-yl]-methanone], the IC50 is 6.9 nM.

On to `Nc1c(C(=O)c2cc3cc(C(=O)N4CCOCC4)ccc3[nH]2)cnn1-c1ccc(Oc2cccc(F)c2F)cc1O` [Example I-29, {5-Amino-1-[4-(2,3-difluoro-phenoxy)-2-hydroxy-phenyl]-1H-pyrazol-4-yl}-[5-(morpholine-4-carbonyl)-1H-indol-2-yl]-methanone], for which the IC50 worked out at 4.3 nM. This IC50 lies about 1.6-fold lower than the previous one.

For the compound `N#Cc1cccc(Oc2ccc(-n3ncc(C(=O)c4cc5cc(C(=O)N6CCOCC6)ccc5[nH]4)c3N)c(Cl)c2)c1` [Example I-30, 3-(4-{5-Amino-4-[5-(morpholine-4-carbonyl)-1H-indole-2-carbonyl]-pyrazol-1-yl}-3-chloro-phenoxy)-benzonitrile], the IC50 was 6.1 nM.

`COC(=O)c1ccc2[nH]c(C(=O)c3cnn(-c4ccc(Oc5cccc(C#N)c5)cc4C)c3N)cc2c1` [Example I-31, 2-{5-Amino-1-[4-(3-cyano-phenoxy)-2-methyl-phenyl]-1H-pyrazole-4-carbonyl}-H-indole-5-carboxylic acid methyl ester] gave an IC50 of 29 nM.

Compound `Cc1cc(Oc2cccc(C#N)c2)ccc1-n1ncc(C(=O)c2cc3cc(C(=O)O)ccc3[nH]2)c1N` [Example I-32, 2-{5-Amino-1-[4-(3-cyano-phenoxy)-2-methyl-phenyl]-1H-pyrazole-4-carbonyl}-H-indole-5-carboxylic acid] returned an IC50 of 22 nM.

On to `N#Cc1cccc(Oc2ccc(-n3ncc(C(=O)c4cc5cc(Br)ccc5[nH]4)c3N)c(Cl)c2)c1` [Example I-33, 3-{4-[5-Amino-4-(5-bromo-1H-indole-2-carbonyl)-pyrazol-1-yl]-3-chloro-phenoxy}-benzonitrile], for which the IC50 was 430 nM. Against the preceding compound, the IC50 is about 20-fold higher.

`N#Cc1cccc(Oc2ccc(-n3ncc(C(=O)c4cc5cc(C(=O)O)ccc5[nH]4)c3N)c(Cl)c2)c1` [Example I-34, 2-{5-Amino-1-[2-chloro-4-(3-cyano-phenoxy)-phenyl]-1H-pyrazole-4-carbonyl}-1H-indole-5-carboxylic acid] registered an IC50 of 25.1 nM.

Consider `COCCNC(=O)c1ccc2[nH]c(C(=O)c3cnn(-c4ccc(Oc5cccc(F)c5F)cc4C)c3N)cc2c1` [Example I-35, 2-{5-Amino-1-[4-(2,3-difluoro-phenoxy)-2-methyl-phenyl]-1H-pyrazole-4-carbonyl}-1H-indole-5-carboxylic acid (2-methoxy-ethyl)-amide], for which the IC50 amounted to 1.8 nM.

For `Cc1cc(Oc2cccc(C#N)c2)ccc1-n1ncc(C(=O)c2cc3cc(C(=O)NCCN)ccc3[nH]2)c1N` [Example I-36, 2-{5-Amino-1-[4-(3-cyano-phenoxy)-2-methyl-phenyl]-1H-pyrazole-4-carbonyl}-H-indole-5-carboxylic acid (2-amino-ethyl)-amide], the IC50 is 5 nM.

The compound `NC(=O)c1cccc(Oc2ccc(-n3ncc(C(=O)c4cc5cc(C(=O)N6CCOCC6)ccc5[nH]4)c3N)c(Cl)c2)c1` [Example I-37, 3-(4-{5-Amino-4-[5-(morpholine-4-carbonyl)-1H-indole-2-carbonyl]-pyrazol-1-yl}-3-chloro-phenoxy)-benzamide] came in with an IC50 of 50 nM.

`COC(=O)c1ccc2[nH]c(C(=O)c3cnn(-c4ccc(Oc5cccc(C#N)c5)cc4C)c3N)nc2c1` [Example I-38, 2-{5-Amino-1-[4-(3-cyano-phenoxy)-2-methyl-phenyl]-1H-pyrazole-4-carbonyl}-1H-benzoimidazole-5-carboxylic acid methyl ester]: the IC50 amounted to 150 nM.

For `Cc1cc(Oc2cccc(C#N)c2)ccc1-n1ncc(C(=O)c2nc3cc(C(=O)N4CCOCC4)ccc3[nH]2)c1N` [Example I-39, 3-(4-{5-Amino-4-[5-(morpholine-4-carbonyl)-1H-benzoimidazole-2-carbonyl]-pyrazol-1-yl}-3-methyl-phenoxy)-benzonitrile], the IC50 came to 24 nM.

The compound `COCCNC(=O)c1ccc2[nH]c(C(=O)c3cnn(-c4ccc(Oc5cccc(C#N)c5)cc4C)c3N)nc2c1` [Example I-40, 2-{5-Amino-1-[4-(3-cyano-phenoxy)-2-methyl-phenyl]-1H-pyrazole-4-carbonyl}-1H-benzoimidazole-5-carboxylic acid (2-methoxy-ethyl)-amide] registered an IC50 of 23 nM.

The compound `N#CNC(=O)c1ccc2[nH]c(C(=O)c3cnn(-c4ccc(Oc5cccc(C#N)c5)cc4Cl)c3N)cc2c1` [Example I-41, 2-{5-Amino-1-[2-chloro-4-(3-cyano-phenoxy)-phenyl]-1H-pyrazole-4-carbonyl}-N-cyano-1H-indole-5-carboxylic acid amide] gave a half-inhibitory concentration (IC50) of 52 nM.

As to `Cc1cc(Oc2cccc(C#N)c2)ccc1-n1ncc(C(=O)c2nc3cc(C(=O)O)ccc3[nH]2)c1N` [Example I-42, 2-{5-Amino-1-[4-(3-cyano-phenoxy)-2-methyl-phenyl]-1H-pyrazole-4-carbonyl}-1H-benzoimidazole-5-carboxylic acid], the IC50 stood at 130 nM.

`Cc1cc(Oc2ccccc2C#N)ccc1-n1ncc(C(=O)c2cc3cc(C(=O)N4CCOCC4)ccc3[nH]2)c1N` [Example I-43, 2-(4-{5-Amino-4-[5-(morpholine-4-carbonyl)-1H-indole-2-carbonyl]-pyrazol-1-yl}-3-methyl-phenoxy)-benzonitrile] had an IC50 of 1.3 nM.

Take `CN1CCN(C(=O)c2ccc3[nH]c(C(=O)c4cnn(-c5ccc(Oc6cccc(C#N)c6)cc5Cl)c4N)cc3c2)CC1` [Example I-44, 3-(4-{5-Amino-4-[5-(4-methyl-piperazine-1-carbonyl)-1H-indole-2-carbonyl]-pyrazol-1-yl}-3-chloro-phenoxy)-benzonitrile hydrochloride salt]: the IC50 stood at 8 nM.

`N#Cc1cccc(Oc2ccc(-n3ncc(C(=O)c4cc5cc(C(=O)NS(=O)(=O)C6CC6)ccc5[nH]4)c3N)c(Cl)c2)c1` [Example I-45, Cyclopropanesulfonic acid (2-{5-amino-1-[2-chloro-4-(3-cyano-phenoxy)-phenyl]-1H-pyrazole-4-carbonyl}-1H-indole-5-carbonyl)-amide]: the IC50 stood at 1.7 nM. This IC50 is about 4.7-fold lower than that of the compound before.

For the compound `CN1CCN(C(=O)c2ccc3[nH]c(C(=O)c4cnn(-c5ccc(Oc6ccccc6C(=O)N(C)C)cc5Cl)c4N)cc3c2)CC1` [Example I-46, 2-(4-{5-Amino-4-[5-(4-methyl-piperazine-1-carbonyl)-1H-indole-2-carbonyl]-pyrazol-1-yl}-3-chloro-phenoxy)-N,N-dimethyl-benzamide], the IC50 was found to be 4.2 nM. This IC50 lies about 2.5-fold higher than the previous one.

`CN1CCN(C(=O)c2ccc3[nH]c(C(=O)c4cnn(-c5ccc(Oc6cccc(C(=O)N(C)C)c6)cc5Cl)c4N)cc3c2)CC1` [Example I-47, 3-(4-{5-Amino-4-[5-(4-methyl-piperazine-1-carbonyl)-1H-indole-2-carbonyl]-pyrazol-1-yl}-3-chloro-phenoxy)-N,N-dimethyl-benzamide] displayed an IC50 of 32 nM.

The compound `N#Cc1cccc(Oc2ccc(-n3ncc(C(=O)c4cc5cc(C(=O)O)ccc5[nH]4)c3N)c(Cl)c2)c1F` [Example I-48, 2-{5-Amino-1-[2-chloro-4-(3-cyano-2-fluoro-phenoxy)-phenyl]-1H-pyrazole-4-carbonyl}-1H-indole-5-carboxylic acid] yielded an IC50 of 3.2 nM.

For the origin of these results see US9556150B2, “Inhibitors of bruton's tyrosine kinase” (Hoffmann-La Roche Inc., priority 2013, dated 2017).
